In ChEMBL document CHEMBL1150275, “Pharmacological and pharmacokinetic characterization of 2-piperazine-alpha-isopropyl benzylamine derivatives as melanocortin-4 receptor antagonists” (Bioorg Med Chem, 2008):

Experiments:
Caco-2 = experiment: Apparent permeability across human Caco-2 cells; format: ADME, cell-based
[1] = Volume of distribution in mouse at 5 mg/kg, iv and 10 mg/kg, po; format: ADME, organism-based; settings: in vivo
[2] = Drug level in mouse brain at 5 mg/kg, iv after 1 hr; format: ADME, organism-based; design: dose 5 mg/kg, route intravenous; settings: read-out: Drug uptake
[3] = Drug level in mouse brain at 5 mg/kg, iv after 4 hrs; format: ADME, organism-based; design: dose 5 mg/kg, route intravenous; settings: read-out: Drug uptake
[4] = Ratio of drug level in brain to plasma in mouse at 5 mg/kg, iv after 1 hr; format: ADME, organism-based; design: dose 5 mg/kg, route intravenous
[5] = Ratio of drug level in brain to plasma in mouse at 5 mg/kg, iv after 4 hrs; format: ADME, organism-based; design: dose 5 mg/kg, route intravenous
[6] = Cmax in mouse at 5 mg/kg, iv and 10 mg/kg, po; format: ADME, organism-based; settings: in vivo
[7] = Tmax in mouse at 5 mg/kg, iv and 10 mg/kg, po; format: ADME, organism-based; settings: in vivo
[8] = AUC in mouse at 10 mg/kg, po; format: ADME, organism-based; design: dose 10 mg/kg, route oral; settings: plasma
[9] = Oral bioavailability in mouse at 10 mg/kg; format: ADME, organism-based; settings: in vivo
Brain = experiment: AUC in rat brain at 10 mg/kg, po; format: ADME, organism-based; design: dose 10 mg/kg, route oral; settings: in vivo
[10] = Volume of distribution in rat at 5 mg/kg, iv and 10 mg/kg, po; format: ADME, organism-based; settings: in vivo
[11] = Volume of distribution in monkey at 5 mg/kg, iv and 10 mg/kg, po; format: ADME, organism-based, Macaca mulatta; settings: rhesus monkey, in vivo
[12] = Volume of distribution in dog at 5 mg/kg, iv and 10 mg/kg, po; format: ADME, organism-based, Canis lupus familiaris; settings: in vivo
[13] = Tmax in rat at 5 mg/kg, iv and 10 mg/kg, po; format: ADME, organism-based; settings: in vivo
[14] = Tmax in monkey at 5 mg/kg, iv and 10 mg/kg, po; format: ADME, organism-based, Macaca mulatta; settings: rhesus monkey, in vivo
[15] = Tmax in dog at 5 mg/kg, iv and 10 mg/kg, po; format: ADME, organism-based, Canis lupus familiaris; settings: in vivo
[16] = Cmax in rat at 5 mg/kg, iv and 10 mg/kg, po; format: ADME, organism-based; settings: in vivo
[17] = Cmax in monkey at 5 mg/kg, iv and 10 mg/kg, po; format: ADME, organism-based, Macaca mulatta; settings: rhesus monkey, in vivo
[18] = Cmax in dog at 5 mg/kg, iv and 10 mg/kg, po; format: ADME, organism-based, Canis lupus familiaris; settings: in vivo
[19] = AUC in rat at 10 mg/kg, po; format: ADME, organism-based; design: dose 10 mg/kg, route oral; settings: plasma
[20] = AUC in monkey at 10 mg/kg, po; format: ADME, organism-based, Macaca mulatta; design: dose 10 mg/kg, route oral; settings: rhesus monkey, plasma
[21] = AUC in dog at 10 mg/kg, po; format: ADME, organism-based, Canis lupus familiaris; design: dose 10 mg/kg, route oral; settings: plasma
[22] = Oral bioavailability in rat at 10 mg/kg; format: ADME, organism-based; settings: in vivo
[23] = Oral bioavailability in monkey at 10 mg/kg; format: ADME, organism-based, Macaca mulatta; settings: rhesus monkey, in vivo
[24] = Oral bioavailability in dog at 10 mg/kg; format: ADME, organism-based, Canis lupus familiaris; settings: in vivo
[25] = Cmax in rat brain at 10 mg/kg, po; format: ADME, organism-based; design: dose 10 mg/kg, route oral
[26] = Tmax in rat brain at 10 mg/kg, po; format: ADME, organism-based; design: dose 10 mg/kg, route oral
[27] = Ratio of Cmax in brain to plasma in rat at 10 mg/kg, po; format: ADME, organism-based; design: dose 10 mg/kg, route oral; settings: brain and plasma
[28] = Drug level in rat brain at 10 mg/kg, po after 1 hr; format: ADME, organism-based; design: dose 10 mg/kg, route oral; settings: read-out: Drug uptake
[29] = Drug level in rat brain at 10 mg/kg, po after 4 hrs; format: ADME, organism-based; design: dose 10 mg/kg, route oral; settings: read-out: Drug uptake
[30] = Ratio of Cmax in brain to plasma in rat at 10 mg/kg, po after 1 hr; format: ADME, organism-based; design: dose 10 mg/kg, route oral; settings: brain and plasma
[31] = Ratio of Cmax in brain to plasma in rat at 10 mg/kg, po after 4 hrs; format: ADME, organism-based; design: dose 10 mg/kg, route oral; settings: brain and plasma
[32] = Ratio of AUC in brain to plasma in rat at 10 mg/kg, po; format: ADME, organism-based; design: dose 10 mg/kg, route oral; settings: brain and plasma
physchem = settings: buffer, pH 7.4

CC(C)[C@H](NC(=O)CCN(C)C)c1cccc(F)c1N1CCN(C(=O)[C@H](C)Cc2ccc(Cl)cc2)CC1 showed a Papp (Caco-2) of 10 ×10⁻⁶ cm/s, a Vd [1] of 5.2 L/kg and a concentration at 1 h [2] of 322 ng/g. It also gave a concentration at 4 h [3] of 175 ng/g, a Kp at 1 h [4] of 0.6 and a Kp at 4 h [5] of 0.8. For the same compound, the Cmax [6] was 308 ng/mL, the Tmax [7] was 0.5 h and the AUC [8] was 2690 ng·h/mL. The bioavailability [9] was 42%, the AUC (Brain) was 618 ng·h/g and the Vd [10] was 7.7 L/kg. For the same compound, the Vd [11] was 5.6 L/kg, the Vd [12] was 8.7 L/kg and the Tmax [13] was 6 h. For the same compound, the Tmax [14] was 6.7 h, the Tmax [15] was 4 h and the Cmax [16] was 195 ng/mL. The Cmax [17] was 200 ng/mL, the Cmax [18] was 250 ng/mL and the AUC [19] was 1290 ng·h/mL. For the same compound, the AUC [20] was 2650 ng·h/mL, the AUC [21] was 3850 ng·h/mL and the bioavailability [22] was 31%. The bioavailability [23] was 21%, the bioavailability [24] was 37% and the Cmax [25] was 52 ng/g. The Tmax [26] was 6 h, the Kp [27] was 0.27 and the concentration at 1 h [28] was 6.3 ng/g. It also gave a concentration at 4 h [29] of 38 ng/g, a Kp at 1 h [30] of 0.05 and a Kp at 4 h [31] of 0.2. The Kp [32] was 0.48 and the logD (physchem) was 2.4.
